Here are results for 6 molecules from ChEMBL document CHEMBL5113513, “Selective Inhibitors of Medium-Size S1' Pocket Matrix Metalloproteinases: A Stepping Stone of Future Drug Discovery” (J Med Chem, 2022).

Series [1] has as its system HT-1080. Briefly: Inhibition of cell invasion in human HT-1080 cells for 24 hrs by Calcein AM staining based fluorometric analysis. It counts as functional. As to conditions: HT-1080, 24 h.
Series [2] deals with T1, Neutrophil collagenase (Homo sapiens, UniProt P22894). Briefly: Inhibition of MMP-8 (unknown origin).
Series [3] concerns the target T2, 72 kDa type IV collagenase (Homo sapiens, UniProt P08253).
The target of series [4] is T3, Matrilysin (Homo sapiens, UniProt P09237).
T3 sequence (P09237 whole entry): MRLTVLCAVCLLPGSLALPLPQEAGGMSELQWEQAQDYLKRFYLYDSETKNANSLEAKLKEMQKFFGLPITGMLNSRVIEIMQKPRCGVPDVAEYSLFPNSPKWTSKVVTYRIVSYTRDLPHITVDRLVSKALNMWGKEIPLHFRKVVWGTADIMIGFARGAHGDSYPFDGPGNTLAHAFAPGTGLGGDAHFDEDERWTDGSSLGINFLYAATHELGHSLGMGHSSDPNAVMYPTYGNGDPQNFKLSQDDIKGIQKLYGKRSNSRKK
Briefly: Inhibition of MMP-7 (unknown origin).

The target in series [5] is T4, Stromelysin-1 (Homo sapiens, UniProt P08254). Briefly: Inhibition of MMP-3 (unknown origin).
The target of series [6] is T5, Collagenase 3 (Homo sapiens, UniProt P45452).
Description: Inhibition of MMP-13 (unknown origin)
Series [7] concerns the target T6, Interstitial collagenase (Homo sapiens, UniProt P03956).
T6 sequence (P03956 whole entry): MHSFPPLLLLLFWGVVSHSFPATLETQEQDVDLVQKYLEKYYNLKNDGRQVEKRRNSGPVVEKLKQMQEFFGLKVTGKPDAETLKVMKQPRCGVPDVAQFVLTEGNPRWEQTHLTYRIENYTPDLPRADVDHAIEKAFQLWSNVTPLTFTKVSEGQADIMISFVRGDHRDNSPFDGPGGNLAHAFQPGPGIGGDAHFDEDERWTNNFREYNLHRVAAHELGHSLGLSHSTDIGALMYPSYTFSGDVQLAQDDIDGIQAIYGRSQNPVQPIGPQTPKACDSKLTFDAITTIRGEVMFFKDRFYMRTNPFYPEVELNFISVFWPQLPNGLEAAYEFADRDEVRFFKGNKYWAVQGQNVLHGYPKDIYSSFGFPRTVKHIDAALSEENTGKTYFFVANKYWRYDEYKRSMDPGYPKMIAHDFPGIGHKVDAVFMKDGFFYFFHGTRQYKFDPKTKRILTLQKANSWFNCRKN
As to the kind of experiment: Inhibition of MMP-1 (unknown origin).

The target in series [8] is T6, Interstitial collagenase. As to the kind of experiment: Inhibition of MMP-1 (unknown origin) using 7-(methoxycoumarin-4yl)acetyl-Pro-Leu-Gly-Leu-(N-3-[2,4-dinitrophenyl]- L-2,3-diamino-propionyl)-Ala-Arg-NH2 as fluorogenic substrate for 45 mins by fluorogenic analysis.
Series [9] concerns the target T5, Collagenase 3. As to the kind of experiment: Inhibition of recombinant human MMP-13 using peptide substrate by ELISA. A general note: ELISA stands for enzyme-linked immunosorbent assay.
Series [10] in a line: Inhibition of recombinant human TACE using peptide substrate by ELISA.
A short description of series [11]: Half life in Sprague-Dawley rats at 33 mg/kg, sc. It is filed as ADME, organism-based. As to conditions: rat, in vivo.
A short description of series [12]: Half life in Sprague-Dawley rat at 33 mg/kg, po. It is filed as ADME, organism-based. Conditions: in vivo.
The target in series [13] is Macrophage metalloelastase (Homo sapiens, UniProt P39900). Briefly: Inhibition of recombinant human MMP-12 using peptide substrate by ELISA.
Series [14] is described as follows: AUC in Sprague-Dawley rats at 33 mg/kg, sc. Details: dose 33 mg/kg, route sc. It counts as ADME, organism-based. As to conditions: rat, in vivo.
Series [15] in a line: Clearance in Sprague-Dawley rats at 33 mg/kg, sc. It is filed as ADME, organism-based. Conditions: rat, in vivo.
Series [16] deals with Matrix metalloproteinase-9 (Homo sapiens, UniProt P14780). As to the kind of experiment: Inhibition of recombinant human MMP-9 using peptide substrate by ELISA.
Series [17] has as its target T2, 72 kDa type IV collagenase. Briefly: Inhibition of recombinant human MMP-2 using peptide substrate by ELISA.
The nature of series [18]: AUC in Sprague-Dawley rats at 33 mg/kg, po. It counts as ADME, organism-based. Details: dose 33 mg/kg, route po. Conditions: rat, in vivo.
A short description of series [19]: Half life in rat at 3 mg/kg, iv. It is filed as ADME, organism-based. Conditions: in vivo.
A short description of series [20]: Metabolic stability in cynomolgus monkey assessed as clearance at 3 mg/kg, iv. It is filed as ADME, organism-based, Macaca fascicularis. As to conditions: in vivo.
Series [21] in a line: Metabolic stability in rat assessed as clearance at 3 mg/kg, iv. Conditions: in vivo. It counts as ADME, organism-based.
The nature of series [22]: Oral bioavailability in dog at 3 mg/kg. It is filed as ADME, organism-based, Canis lupus familiaris. Conditions: in vivo.
The nature of series [23]: Oral bioavailability in rat at 3 mg/kg. It is filed as ADME, organism-based. Conditions: in vivo.
A short description of series [24]: Metabolic stability in dog assessed as clearance at 3 mg/kg, iv. It is filed as ADME, organism-based, Canis lupus familiaris. As to conditions: in vivo.
Series [25] concerns B16-F10. As to the kind of experiment: Antitumor activity in mouse B16-F10 xenografted C57BL mouse lung metastasis model assessed as increase in life span measured per hour at 100 mg/kg, ip bid. It is filed as functional.
Series [26] in a line: Plasma concentration in cynomolgus monkey at 3 mg/kg, iv measured upto 3 hrs. It is filed as ADME, organism-based, Macaca fascicularis.
Series [27] can be described thus: Half life in cynomolgus monkey at 3 mg/kg, iv. It is filed as ADME, organism-based, Macaca fascicularis. Conditions: in vivo.
A short description of series [28]: Oral bioavailability in cynomolgus monkey at 3 mg/kg. It is filed as ADME, organism-based, Macaca fascicularis. As to conditions: in vivo.
Series [29] is described as follows: Plasma concentration in rat at 3 mg/kg, iv measured upto 3 hrs. It counts as ADME, organism-based.
Series [30] is described as follows: Plasma concentration in dog at 3 mg/kg, iv measured upto 3 hrs. It is filed as ADME, organism-based, Canis lupus familiaris.
The test system of series [31] is B16-F10. As to the kind of experiment: Inhibition of cell invasion in mouse B16-F10 cells at 100 uM by Matrigel invasion assay. It counts as functional.
Series [32] concerns the target T6, Interstitial collagenase. As to the kind of experiment: Inhibition of recombinant human MMP-1 using peptide substrate by ELISA.
The nature of series [33]: Half life in Sprague-Dawley rats at 150 mg/kg, ip. Conditions: rat, in vivo. It counts as ADME, organism-based.
In series [34] the test system is Mus musculus. As to the kind of experiment: Antimetastatic activity in SCID mouse with human tumor cell orthotopic implantation assessed as reduction in tumor metastasis at 50 mg/kg, ip for 6 weeks. It is filed as functional. Also noted: scale not given: the % may be the effect or the level left.
In series [35] the target is T4, Stromelysin-1. As to the kind of experiment: Inhibition of recombinant human MMP-3 using peptide substrate by ELISA.
Series [36] in a line: Half life in Sprague-Dawley rats at 150 mg/kg, po. It is filed as ADME, organism-based. Conditions: rat, in vivo.
Series [37] is described as follows: Half life in Sprague-Dawley rats at 50 mg/kg, iv. It counts as ADME, organism-based. As to conditions: rat, in vivo.
In series [38] the target is T1, Neutrophil collagenase. As to the kind of experiment: Inhibition of recombinant human MMP-8 using peptide substrate by ELISA.
Series [39] relates to Mus musculus. As to the kind of experiment: Antitumor activity against SCID mouse with human tumor cell orthotopic implantation assessed as reduction in tumor growth at 50 mg/kg, ip for 6 weeks. It counts as functional. Details: scale not given: the % may be the effect or the level left.
Series [40] relates to B16-F10. Briefly: Antimetastatic activity in mouse B16-F10 xenografted C57BL mouse melanoma model assessed as reduction in metastasis loci at 12.5 to 50 mg/kg, ip. As to conditions: dose 12.5-50 mg/kg. Also noted: scale not given: the % may be the effect or the level left. It counts as functional.

SMILES strings stand for the structures. Where only a bound is given, the exact number is not on record here.

T2 sequence (P08253 whole entry): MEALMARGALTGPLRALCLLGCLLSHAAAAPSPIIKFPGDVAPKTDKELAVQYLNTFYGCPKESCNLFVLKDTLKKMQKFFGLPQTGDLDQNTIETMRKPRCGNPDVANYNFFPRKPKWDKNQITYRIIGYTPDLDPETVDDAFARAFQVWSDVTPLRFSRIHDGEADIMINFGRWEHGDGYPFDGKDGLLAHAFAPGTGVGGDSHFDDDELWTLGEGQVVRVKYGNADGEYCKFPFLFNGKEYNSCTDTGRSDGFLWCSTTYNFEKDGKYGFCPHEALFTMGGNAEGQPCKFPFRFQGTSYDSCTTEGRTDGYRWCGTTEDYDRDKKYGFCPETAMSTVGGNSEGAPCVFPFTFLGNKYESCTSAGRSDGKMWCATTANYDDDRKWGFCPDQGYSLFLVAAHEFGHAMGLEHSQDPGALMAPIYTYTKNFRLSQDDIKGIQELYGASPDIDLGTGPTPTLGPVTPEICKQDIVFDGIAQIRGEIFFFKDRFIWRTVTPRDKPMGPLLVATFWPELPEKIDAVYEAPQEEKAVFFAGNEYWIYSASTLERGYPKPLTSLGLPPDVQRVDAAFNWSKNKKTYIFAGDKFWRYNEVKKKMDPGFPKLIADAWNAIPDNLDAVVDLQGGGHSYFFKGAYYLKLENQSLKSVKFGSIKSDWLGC
T1 sequence (P22894 whole entry): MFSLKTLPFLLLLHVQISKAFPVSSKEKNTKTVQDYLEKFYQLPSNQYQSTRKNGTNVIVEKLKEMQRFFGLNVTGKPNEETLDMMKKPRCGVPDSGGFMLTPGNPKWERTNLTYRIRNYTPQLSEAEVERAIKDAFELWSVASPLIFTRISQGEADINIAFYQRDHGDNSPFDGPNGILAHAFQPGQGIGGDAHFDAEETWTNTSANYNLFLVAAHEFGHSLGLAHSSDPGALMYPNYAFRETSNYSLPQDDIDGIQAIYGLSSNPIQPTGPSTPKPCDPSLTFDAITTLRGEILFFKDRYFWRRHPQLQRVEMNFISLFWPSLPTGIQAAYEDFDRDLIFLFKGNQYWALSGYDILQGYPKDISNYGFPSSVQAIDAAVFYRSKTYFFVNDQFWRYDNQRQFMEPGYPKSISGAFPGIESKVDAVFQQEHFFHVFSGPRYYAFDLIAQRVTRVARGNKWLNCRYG
Chain of Matrix metalloproteinase-9 (P14780 whole entry): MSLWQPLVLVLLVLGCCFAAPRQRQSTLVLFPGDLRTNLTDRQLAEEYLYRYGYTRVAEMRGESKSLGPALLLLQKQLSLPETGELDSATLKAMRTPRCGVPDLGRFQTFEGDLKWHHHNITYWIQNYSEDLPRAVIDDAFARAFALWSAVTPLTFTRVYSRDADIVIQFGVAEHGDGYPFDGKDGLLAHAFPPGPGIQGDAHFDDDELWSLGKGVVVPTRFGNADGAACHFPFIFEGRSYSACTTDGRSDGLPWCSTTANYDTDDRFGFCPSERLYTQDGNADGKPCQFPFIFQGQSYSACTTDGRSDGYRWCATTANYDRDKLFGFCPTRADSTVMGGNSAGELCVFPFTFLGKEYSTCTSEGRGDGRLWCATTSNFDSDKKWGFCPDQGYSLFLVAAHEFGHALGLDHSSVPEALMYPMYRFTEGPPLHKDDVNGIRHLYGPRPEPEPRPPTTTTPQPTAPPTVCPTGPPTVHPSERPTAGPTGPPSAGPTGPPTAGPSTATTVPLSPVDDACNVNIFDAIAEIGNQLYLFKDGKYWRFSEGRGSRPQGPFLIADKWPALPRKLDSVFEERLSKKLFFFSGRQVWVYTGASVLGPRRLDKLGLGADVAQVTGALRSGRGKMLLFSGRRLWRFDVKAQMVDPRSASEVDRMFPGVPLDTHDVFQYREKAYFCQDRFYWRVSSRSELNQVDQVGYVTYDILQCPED
Chain of Macrophage metalloelastase (P39900 whole entry): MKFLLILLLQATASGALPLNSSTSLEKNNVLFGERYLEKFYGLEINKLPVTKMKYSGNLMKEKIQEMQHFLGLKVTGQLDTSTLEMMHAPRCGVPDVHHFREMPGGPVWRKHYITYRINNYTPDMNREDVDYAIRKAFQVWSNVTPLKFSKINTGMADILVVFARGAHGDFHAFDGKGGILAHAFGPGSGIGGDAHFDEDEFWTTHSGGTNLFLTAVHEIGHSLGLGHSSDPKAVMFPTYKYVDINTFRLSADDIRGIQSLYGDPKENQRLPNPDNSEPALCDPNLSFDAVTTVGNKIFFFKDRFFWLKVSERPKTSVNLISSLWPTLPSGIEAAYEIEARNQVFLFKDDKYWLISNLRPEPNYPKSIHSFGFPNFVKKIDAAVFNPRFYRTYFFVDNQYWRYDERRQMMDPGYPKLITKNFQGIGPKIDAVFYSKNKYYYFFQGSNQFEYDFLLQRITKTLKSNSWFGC
T4 sequence (P08254 whole entry): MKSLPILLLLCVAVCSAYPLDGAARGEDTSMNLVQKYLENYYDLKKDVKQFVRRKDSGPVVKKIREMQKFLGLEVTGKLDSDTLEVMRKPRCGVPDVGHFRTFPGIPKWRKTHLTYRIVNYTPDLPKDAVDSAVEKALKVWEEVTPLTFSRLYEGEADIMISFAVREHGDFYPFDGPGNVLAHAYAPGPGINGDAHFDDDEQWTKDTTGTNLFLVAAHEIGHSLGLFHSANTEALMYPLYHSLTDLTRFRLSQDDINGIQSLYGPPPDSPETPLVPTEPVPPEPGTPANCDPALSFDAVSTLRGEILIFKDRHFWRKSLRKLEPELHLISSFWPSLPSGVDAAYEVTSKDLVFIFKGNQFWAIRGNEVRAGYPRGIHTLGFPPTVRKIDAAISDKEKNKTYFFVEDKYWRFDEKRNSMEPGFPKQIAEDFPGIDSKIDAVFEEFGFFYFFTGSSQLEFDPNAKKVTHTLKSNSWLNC

For `COc1ccccc1Nc1nc(-c2sc(NC(C)=O)nc2C)cs1`, the concentration for half-maximal inhibition (IC50) in [1] is 1000 nM.

As for `C[C@H]1c2cccc(O)c2C(=O)C2=C(O)[C@]3(O)C(=O)C(C(N)=O)=C(O)[C@@H](N(C)C)[C@@H]3[C@@H](O)[C@@H]21` [DOXYCYCLINE], the half-inhibitory concentration (IC50) was 26000 nM in [2]; 56000 nM in series [3]; 28000 nM in [4]; 21400 nM in series [1]; 32000 nM in series [5]; 20000 nM in series [6]. Besides, the IC50 in series [7] is over 400000 nM.

Turning to `C=C[C@@H]1OC(Cc2ccccc2)=N[C@H]1CO`, the Ki in [8] was over 500000 nM.

Turning to `O=C(NCCCCCCNS(=O)(=O)c1ccc(Oc2ccccc2)cc1)P(=O)(O)O`, the half-inhibitory concentration (IC50) was over 100 nM in series [9]; 20 nM in [10]; over 100 nM in series [13]; over 100 nM in [16]; 4 nM in series [17]. In addition, the half-life was 6.6 h in series [11] and 5.8 h in series [12]. The AUC in series [14] was 50500 ng·h/mL; in [18] it was 3300 ng·h/mL. Also, the CL/F in series [15] is 7.1 mL/min/kg.

As to `CC1(C)NC(=O)N(C[C@@H](COc2ccc(-c3ccc(OC(F)(F)F)cc3)cc2)N(O)C=O)C1=O`, the figures for the half-life in series [19] and in series [27] were 8 h and 21 h, respectively. Also, the clearance in series [20] is 1.13 mL/min/kg; in [21], 2 mL/min/kg; in [24], 1.83 mL/min/kg. For the same molecule, the bioavailability in series [22], in series [23] and in series [28] was 84% in each case. In series [25], the Activity was determined as 46%. Moreover, the concentration at 3 h in series [26], in series [29] and in series [30] was 1500 ng/mL throughout.

For the molecule `NC1CCCCC1NC(=O)P(=O)(O)O` (stereo unspecified), the IC50 is over 100 nM in [9]; over 100 nM in [10]; over 100 nM in series [13]; over 100 nM in series [32]; 20 nM in [16]; over 100 nM in series [35]. Further, the half-inhibitory concentration (IC50) is over 100 nM in [38] and 4 nM in series [17]. In series [31], this molecule gave an inhibition at 100 µM of 90%. In addition, the half-life in series [33] stood at 1.8 h; in series [36], 2.1 h; in series [37], 0.313 h. The Activity in [34] was determined as 90%; in [39] it was 60%; in series [40], 50%.

Broadly, the IC50 is the point on the concentration scale where inhibition reaches its midpoint. Usually Ki stands for the dissociation constant of the complex between target and ligand, obtained from inhibition or displacement. One may read the half-life as the time in which the quantity being followed falls by half. In general, AUC refers to the area under the concentration-time curve, a measure of exposure. Broadly, the CL/F is the apparent clearance, not corrected for the fraction that reaches the circulation. In general, clearance refers to the rate of elimination divided by the concentration. For orientation: bioavailability means the share of a dose that reaches the circulation, judged against a reference dose that is usually intravenous. Broadly, the inhibition is how much of the control response was suppressed.
